The melting point is the temperature, or range, at which the solid turns liquid. The compound `CCCCCc1cc(-c2cc(=O)c3c(O)cc(O)cc3o2)ccc1OC` displayed a melting point of 166 to 168 °C. Under `CON(c1ccc([N+](=O)[O-])cc1C#N)S(=O)(=O)c1ccc(C(F)(F)F)cc1` stands 134 to 135 °C; under `CCC(=O)OCOC(=O)C1=C(C)N(COC)C(C)=C(C(=O)OCOC(=O)CC)C1c1cccc([N+](=O)[O-])c1`, 86 to 87 °C; under `CCOc1nc(C(F)(F)F)cc(=O)n1-c1cc(OCCON=C(C)C)c(Br)cc1F`, 131 to 132 °C. In the case of `CCOC(=O)[C@H](C)Oc1ccc2cc(Br)ccc2c1` it was 72 to 74 °C. In the case of `COc1cc(N)ccc1-c1ccccc1` it was 56 °C; in that of `NS(=O)(=O)c1cc2cc(O)c(O)cc2s1`, 233 to 235 °C; in that of `CN(C)S(=O)(=O)c1ccc(Cl)c(-c2csc(=Nc3ccccc3)n2C)c1`, 195 to 197 °C. `CCc1c(C(=O)O)nn(-c2ccc(Cl)cc2Cl)c1-c1ccc(Cl)s1` gave a melting point of 207 to 208 °C. Under `O=C(O)C1=CS[C@@H]2/C(=C\c3ccc4nc5sccn5c4c3)C(=O)N12` stands more than 250 °C; under `CCOC(=O)CCCC1CCN(CCOC(c2ccccc2)c2ccc(F)cc2)CC1` (configuration not stated), 119 to 120 °C.

The compound `Oc1ccc2ccc(OCc3ccccn3)cc2c1` came in with a melting point of 190 to 193 °C.

With `Cn1c(CCN2CCN(Cc3ccccc3)CC2)nc2ccc3ccccc3c21`, the melting point lay in the range of 144 to 146 °C. In turn, `c1cc(C2=NOC(C3CC3)C2)ccn1` (configuration not stated) had a melting point of 102 to 108 °C. Under `CC(=O)c1cccc2cc3cccc(C(C)=O)c3cc12` stands 178 to 181 °C. `COc1cc(CN2CCN(c3ccc(C(=O)NC4CC4)cc3F)CC2)cc2c1OC(C)C(=O)N2` (configuration not stated) returned a melting point of 233 °C. Under `COc1ccc(S(=O)(=O)C2(C(=O)O)CCN(Cc3ccc(-c4cccs4)cc3)CC2)cc1` stands 235 °C; under `COc1ccccc1C(=O)C=CC(=O)O`, 146 to 148 °C; under `CC(C)(C)C(NC(=O)c1ccc(Cl)cc1)NC(=NC#N)NCc1cccnc1` (configuration not stated), 188 to 189 °C. Consider `CC1=C(CO)C(C)(C)CCC1=NO`, for which the melting point lay in the range of 152 to 155 °C.

Compound `O=C(O)Cn1c(=O)c(=O)[nH]c2cc([N+](=O)[O-])ccc21` showed a melting point of more than 320 °C. Under `COC(=O)N1C[C@@H](C#N)[C@H](c2ccc(OC)c(OC3CCCC3)c2)C1` (relative stereo) stands 101 to 104 °C; under `CCc1cn(C[C@@H](C)O)c2ccc(F)cc12`, 65 to 67 °C; under `OCc1ccccc1SCCN1CCN(c2ccccc2)CC1`, 72 to 74 °C. Under `CC1(C)C=C(C#Cc2ccccn2)CC(C)(C)C1` stands 55 to 56 °C. `CCCc1nc(C)nc(O)c1Cc1ccc([N+](=O)[O-])cc1`: the melting point was determined as 200 °C. `CC(C)CP1C(O)C(O)P(CC(C)C)C(O)C1O` (configuration not stated) had a melting point of 173 to 175 °C. The compound `N=C(NCC(F)(F)F)NC(N)=S` returned a melting point of 164 to 166 °C.

Consider `C[Si](C)(C)CCCCCNC(=O)n1cc(F)c(=O)[nH]c1=O`, for which the melting point was 118 to 119 °C. As for `COC(=O)N=C(N(C)C)N(C)C(=O)NC1CCCCC1`, the melting point was found to be 60 °C. In the case of `CCOC(=O)c1nc(-c2ccccc2)c(-c2ccc(=O)n(C(C)C)n2)s1` it was 153 to 154 °C; in that of `CN1CCC(C2(O)c3ccc(F)cc3Sc3ccc(F)cc32)CC1` (configuration not stated), 207 to 209 °C; in that of `Nc1ccc(N2CCC(N3CCOCC3)CC2)c(C(F)(F)F)c1`, 118 to 120 °C. In the case of `COc1ccc(-n2nc(C(F)F)cc2-c2ccc(S(C)(=O)=O)cc2)cc1Cl` it was 169 to 171 °C. In the case of `CCn1ncc2c(NCC34CC5CC(CC(C5)C3)C4)c3ccccc3nc21` it was 310 °C; in that of `CS(=O)(=O)C(=C1CN(C(c2ccccc2)c2ccccc2)C1)c1cc(C(F)(F)F)cc(C(F)(F)F)c1`, 192 °C. On to `O=C(OCN1C(=O)c2ccccc2C1=O)c1ccccc1N=Nc1ccc(O)c(O)n1`, for which the melting point lay within 196 to 201 °C. `CC(C)(C)OC(=O)N1CC(CCl)c2c1ccc1ccccc21` (configuration not stated) showed a melting point of 107 to 108 °C. Consider `Cc1ccc(NC(=O)c2cnn3c(C(F)(F)F)cc(-c4ccc(C(F)(F)F)cc4)nc23)cc1S(N)(=O)=O`, for which the melting point is 297 °C. Under `Cc1cc(-n2ccnc2)c2cccc(OCc3c(Cl)ccc(S(=O)(=O)N4CCC[C@H]4C(=O)NCCCN(C)C)c3Cl)c2n1` stands 80 °C; under `CC(=O)OCc1csc(-c2nc3n(c2-c2ccncc2)CCC3)c1`, 126 °C; under `COc1ccc(Cl)cc1C1(O)C(=O)Nc2cc(C(F)(F)F)ccc21` (configuration not stated), 207 to 210 °C. Under `Cc1cccc2c(Nc3ccc(OCCCCN(CCCl)CCCl)cc3)c3cccc(C(=O)NCCN(C)C)c3nc12` stands 166 to 167 °C; under `COC(=O)c1cc(-c2cccc(Cl)c2)sc1N`, 85 to 87 °C; under `Cc1cc(C)c(C(=O)ON2C(C)(C)c3ccccc3C2(C)C)c(C)c1`, 181 to 183 °C.

`O=C(NC1CCOc2cc(C(=O)O)ccc21)OCc1ccccc1` (configuration not stated) displayed a melting point of 227 to 228 °C.

The compound `CCOC(=O)C(=O)Nc1ccc(CC)cc1[N+](=O)[O-]` yielded a melting point of 110 to 112 °C. For the compound `COc1cc2c(c(O)c1C)COC(C)C2` (configuration not stated), the melting point lay within 143 to 145 °C.

In the case of `O=C(O)C=C=Cc1ccc(C2CCCCC2)cc1`, the melting point lay within 126 to 129 °C. For `NC(=O)N(O)Cc1cccc(C(O)C#Cc2cccnc2)c1` (configuration not stated), the melting point was found to be 153 °C.

As to `Nc1ccc2c(=O)[nH]c(=O)n(CCCCN3CCC(OC(c4ccccc4)c4ccccc4)CC3)c2c1`, the melting point was in the range of 162 to 164 °C. In the case of `COc1ccc(Nc2nc(NC(CO)CO)nc(N(C)C3CCN(C)CC3)n2)cc1Cl` it was 84 °C; in that of `COC(=O)C(C)(C)OCc1oc(-c2ccc(Cl)cc2)nc1C`, 88 to 90 °C; in that of `CC1(C)CCC(C)(C)c2c(OCc3ccc(F)cc3)cc(C(=O)c3ccc4cc(C(=O)O)ccc4c3)cc21`, 277 °C. In the case of `FC(F)C(F)(F)Sc1nc(-c2ccco2)c(-c2ccco2)[nH]1` it was 166 to 167 °C. In the case of `C[C@@H](O[C@H]1CCCN(Cc2n[nH]c(=O)[nH]2)[C@H]1c1ccccc1)c1cccc(Cl)c1` it was 164 to 165 °C. For the compound `Cc1cc2c(cc1C(=O)C(C)CC(=O)O)NC(=O)CO2` (configuration not stated), the melting point is 170 to 172 °C.

Turning to `COc1cccc(C(N)=O)c1[N+](=O)[O-]`, the melting point lay within 212 to 214 °C.

`C=CCn1nc(-c2cc(C(C)(C)C)c(O)c(C(C)(C)C)c2)c2cccnc21` had a melting point of 120 to 123 °C. In turn, `COc1cc(C(C)=O)ccc1OCCCCCN1CCC(C(O)(c2ccc(F)cc2)c2ccc(F)cc2)CC1` registered a melting point of 118 °C. In the case of `CC(=O)NNC1=Nc2sc(Cl)cc2C(c2c(F)cccc2F)=NC1` it was 257 to 260 °C; in that of `COc1csc(Cc2c(C(C)C)cc(C(C)C)c(C(C)O)c2-c2ccc(F)cc2)c1` (single isomer, unassigned; (+)), 140 to 142 °C.

For the compound `CCn1nc(C)c2c(Cl)c(CO)cnc21`, the melting point lay within 119 to 121 °C. In the case of `COc1ccc2c(c1)CCc1ccccc1C2=O` it was 72 to 73 °C; in that of `NC(=O)c1cccc2[nH]c(-c3ccc(O)cc3)nc12`, 266 to 267 °C. Under `CCCCCCCCCC#Cc1ccnc(C(=O)O)c1` stands 93 to 94 °C. Under `CCCCCCCCCCCc1cc2ccc(C(=O)OCCCC)cc2[nH]1` stands 73 to 76 °C; under `CS(=O)(=O)c1cccc(C2=C(C3CCCC3)CCC2=NO)c1`, 164 to 165 °C. In turn, `Nc1cnc2c(NC(=O)c3c(Cl)cccc3Cl)cccc2c1-n1ccnc1` showed a melting point of more than 250 °C. In the case of `COc1cc(/C=C/C(=O)c2ccc(NS(C)(=O)=O)cc2)cc(-c2cccs2)c1OC`, the melting point was in the range of 71 to 75 °C. In the case of `CSP(=S)(C1CCCCC1)C1CCCCC1` it was 75 to 75.5 °C.

`CN1C(=O)C2(COc3cc4c(cc32)OCCO4)c2c(-c3cc[nH]n3)cccc21` (configuration not stated) yielded a melting point of 201 to 202 °C. On to `Cc1ccc2c(Cl)cc(C(=O)NCCCc3ccccc3)c(O)c2n1`, for which the melting point was in the range of 109 to 111 °C. In the case of `Cc1nc(N2CCN(Cc3ccc(F)cc3)C2=O)sc1C(=O)NCc1cnccn1` it was 185 to 187 °C. In turn, `ClCCCOc1ccccc1Nc1nc(Cl)nc2c1ncn2C1CCCC1` came in with a melting point of 110 to 112 °C.

`c1ccc(-c2ccc(CCN3CCN(c4ccccc4)CC3)s2)cc1`: the melting point amounted to 124 °C.

`COc1cc(OC)cc(C(=O)N2CCc3cc(O)ccc3C2=O)c1` displayed a melting point of 178 to 179 °C.

Source of the values: a melting point compilation (Tetko et al.; mined from patent text by program, amines drawn as free bases though some values may be those of a salt).
